# From patent US20250034191A1, “LIGININ FLOWER PRODUCTION AND USES THEREOF” (SILICYCLE INC., priority 2021, published 2025)
# “And” between values parts separate entries of the source, which are not always exact repeats. Identical values can stand only once.
# Assays:
# S. typhimurium TA 98 = assay: Ames test (OECD 471), plate incorporation assay; assay type: cell-based, Salmonella typhimurium; settings: TA 98 with S9, positive control, 3.0 μg/plate (Table 3)
# Excerpt: The purpose of the test is to investigate the possible genotoxic activity exerted by the tested substance in bacterial strains of Salmonella typhimurium, with and without metabolic activation with S9.
# The Ames test allows for detecting the induction of point mutations in nucleotide bases, such as deletions, insertions, transversions and frameshift mutations by using modified Salmonella typhimurium strains. These strains carry a defective gene in the histidine operon making them auxotroph for this amino acid (mutants His-which require histidine in the culture medium for growth). The method guiding principle is based on the reverse mutation phenomenon by which bacteria exposed to a mutagenic substance may change back and become again prototroph concerning histidine (His+). The bacterial cells in growth phase are exposed to different concentrations of the test agent and mutagenic activity is determined by the capability of the test substance to induce a significant increase in the number of revertant (histidine-independent mutant, His+) in comparison to the spontaneous reversions occurring in the control cultures.
# Some chemical agents are not directly mutagen but become so by following transformation and metabolic activation occurring in the organism by liver enzyme activity. To study this genotoxic effect, rat liver microsomal fraction (S9) has been added. The employ of S9 allows identifying substances that act as indirect mutagen.
# In this assay, 5 bacterial strains TA 1535, TA100, TA 102, TA 1537 and TA98 have been used and their characteristics are illustrated in Table 3. Each tester strains contains a different type of mutation in the histidine operon. TA 1535 and TA 100 strains are specific testers for mutagens causing base substitutions. The TA 102 strain is used to detect mutagens that require an intact excision repair system. […] Furthermore, the TA 102 strain contains the multicopy plasmid, pAQ1, which confers tetracycline resistance. The frameshift tester strains used are TA 1537 and TA 98. TA 98, like TA 100, is ampicillin resistant. All S. typhimurium strains carry, along with the defect in the histidine gene (His−), a deep rough (rfa) character, a mutation that causes partial loss of the lipopolysaccharide barrier that coats the surface of the bacteria and increases permeability to large molecules. […] For technical reason, the deletion excising the uvrB gene extends through the bio gene and, consequently, these bacteria also require biotin for growth.
# The study was performed using the plate incorporation assay with and without S9 mix. S9 is composed by Aroclor 1254 induced rat liver supplemented with glucose-6-phosphate and NADP (Moltox®). The experiment was performed in duplicate Petri dishes containing basal medium and a further layer of medium containing histidine+biotin, the Salmonella typhimurium suspension, the sample to be tested at different concentrations and, if the case of metabolic activation, a 5% S9 mix. Dishes were incubated for 48 hours at 37° C. When the incubation time was over, a basal bacterial growth was achieved limited by the amount of histidine in the medium and in add the growth of revertant colonies (his+). In particular, the basic number of revertant colonies is steady, different for each strain, due to the spontaneous mutation rate of the bacterial strain. If an increase in the number of revertant colonies is observed, this is proportional to the tested sample concentration and to its mutagen capability. […]
# NADPH-oxidase complex = settings: Zhang, Yi et al., American Journal of Hypertension, 2005; cited from earlier work
# secreted IL6 = assay: Interleukin 6 (IL6) secretions in coculture; assay type: cell-based, human
# Excerpt: To assess the effect of the test element on inflammation, we assayed extracellular concentrations of secreted IL6. The results were normalized by the number of fibroblasts and represented as a percentage of the solvent condition DMSO (FIG. 13).
# [1] = test system: reconstructed artificial human skin model (normal human epidermal keratinocytes); assay: In vitro skin irritation, reconstructed human epidermis (OECD 439), MTT; assay type: cell-based; settings: 42 h treatment, 42 hours incubation
# Procedure: The purpose of this test is to evaluate if the tested material is, or is not a skin irritant, according to the method described in OECD 439. This method uses the human artificial skin model (EPISKIN™, EpiDerm™, Episkin™ RHE) to assess the skin irritation of chemical substances, mixtures and to properly label them to this respect if applicable.
# The test is based on the evaluation of cell survival after the exposure to the substance through MTT assay and by comparison with epidermis treated with phosphate buffer only (negative control). The MTT method is a colorimetric assay that allows to determine the percentage of cells alive within an in vitro cultured tissue. This assay is based on the ability of the mitochondrial succinate dehydrogenase enzyme to metabolize the nitro-blue tetrazolium salt, giving a colored compound that can be measured by spectrophotometer reading. […]
# Epidermis units are treated with 1 mg/ml MTT solution (3-[4,5-dimethylthiazol-2-yl]-2,5-diphenyl tetrazolium bromide) for 3 h at 37° C. […] 2 aliquots of every sample are transferred to a 96 well plate for the reading. The absorbance is read at the wavelength of 570 nm with a colorimeter (Tecan model Infinite 200 PRO) equipped with a microplate reader.
compound,measurement,setting,value
"Nc1ccc2cc3ccccc3cc2c1 [2AAn, 2-aminoanthracene]",Statistically significant vs solvent control (p < 0.05),S. typhimurium TA 98,yes
same,"revertant, mean",S. typhimurium TA 98,3320 UFC/plate
same,"revertant, single replicates",S. typhimurium TA 98,3353 UFC/plate and 3291 UFC/plate and 3316 UFC/plate
"COc1cc(C(C)=O)ccc1O [Apocynin, apocynin]",inhibition of the NADPH-oxidase complex,NADPH-oxidase complex,effective inhibitor
C[C@@H]1C[C@H]2[C@@H]3CCC4=CC(=O)C=C[C@]4(C)[C@@]3(F)[C@@H](O)C[C@]2(C)[C@@]1(O)C(=O)CO [Dexamethasone],"IL6 secretions, normalized by number of fibroblasts","secreted IL6; D3, anti-inflammatory reference",25%
same,"IL6 secretions, normalized by number of fibroblasts","secreted IL6; D6, compared to the coculture control",85%
CCCCCCCCCCCCOS(=O)(=O)[O-].[Na+] [SLS 5%],Classification,[1],I (Irritant)
same,% mean cell viability (ds),[1]; tested undiluted,0.93%
